# Laboratory results from patent US10051857B2, “Formulation component” (SYNGENTA LIMITED, priority 2011, dated 2018).
# Experiments:
# Format in all cases: in vivo
# [1] = test system: Amaranthus tuberculatus (AMATE); assay: Glasshouse adjuvant test with mesotrione (Example 6); details: mesotrione 45 or 90 g/ha, adjuvant 0.2% v/v or none, 200 l/ha; growth stage 13/14; mean over two rates, three replicates, 7, 14 and 21 days
# Description: (§1) Compound 1 was tested in a glasshouse against four weed species using the herbicide mesotrione. A 20% w/w stock emulsion of compound 1 was prepared additionally containing 2% w/w Gohsenol® GL03 and 2% w/w Pluronic® PE10500 as surfactants. Using this, an agrochemical composition was prepared containing 0.2% v/v of the adjuvant in a track sprayer and was applied at a volume of 200 liters per hectare. Mesotrione was applied at either 45 or 90 grams of pesticide per hectare on each of the weed species. The weed species and their growth stage at spraying were Amaranthus tuberculatus (AMATE; growth stage 13/14), Brachiaria decumbens (BRADE; growth stage 13/14), Digitaria sanguinalis (DIGSA; growth stage 14), and Polygonum convolvulus (POLCO; growth stage 11/11.5).
# (§2) Each test was replicated three times. The efficacy of the herbicide was assessed visually and expressed as a percentage of the leaf area killed. Samples were assessed at time periods of 7, 14 and 21 days following application. The results shown in Table 6 below are mean averages over the two rates of mesotrione, three replicates and the three assessment timings, and are compared to the efficacy of mesotrione in absence of adjuvant.
# [2] = test system: Brachiaria decumbens (BRADE); assay: as above; details: mesotrione 45 or 90 g/ha, adjuvant 0.2% v/v or none, 200 l/ha; growth stage 13/14; mean over two rates, three replicates, 7, 14 and 21 days
# Description: as §1, §2
# [3] = test system: Digitaria sanguinalis (DIGSA); assay: as above; details: mesotrione 45 or 90 g/ha, adjuvant 0.2% v/v or none, 200 l/ha; growth stage 14; mean over two rates, three replicates, 7, 14 and 21 days
# Description: as §1, §2
# [4] = test system: Polygonum convolvulus (POLCO); assay: as above; details: mesotrione 45 or 90 g/ha, adjuvant 0.2% v/v or none, 200 l/ha; growth stage 11/11.5; mean over two rates, three replicates, 7, 14 and 21 days
# Description: as §1, §2
# [5] = test system: Abutilon theophrasti (ABUTH); assay: Glasshouse adjuvant test with nicosulfuron (Example 7); details: nicosulfuron 30 or 60 g/ha, adjuvant 0.2% v/v or none, 200 l/ha; growth stage 13; mean over two rates, three replicates, 14 and 21 days
# Description: (§3) Compound 1 was tested in a glasshouse against four weed species using the herbicide nicosulfuron. A 20% w/w stock emulsion of compound 1 was prepared additionally containing 2% w/w Gohsenol® GL03 and 2% w/w Pluronic® PE10500 as surfactants. Using this, an agrochemical composition was prepared containing 0.2% v/v of the adjuvant in a track sprayer and was applied at a volume of 200 liters per hectare. Nicosulfuron was applied at either 30 or 60 grams of pesticide per hectare on each of the weed species. The weed species and their growth stage at spraying were Abutilon theophrasti (ABUTH; growth stage 13), Chenopodium album (CHEAL; growth stage 14), Digitaria sanguinalis (DIGSA; growth stage 13), and Setaria viridis (SETVI; growth stage 13).
# (§4) Each spray test replicated three times. The efficacy of the herbicide was assessed visually and expressed as a percentage of the leaf area killed. Samples were assessed at time periods of 14 and 21 days following application. The results shown in Table 7 below are mean averages over the two rates of nicosulfuron, three replicates and the two assessment timings, and are compared to the efficacy of nicosulfuron in the absence of an adjuvant.
# [6] = test system: Chenopodium album (CHEAL); assay: as above; details: nicosulfuron 30 or 60 g/ha, adjuvant 0.2% v/v or none, 200 l/ha; growth stage 14; mean over two rates, three replicates, 14 and 21 days
# Description: as §3, §4
# [7] = test system: Digitaria sanguinalis (DIGSA); assay: as above; details: nicosulfuron 30 or 60 g/ha, adjuvant 0.2% v/v or none, 200 l/ha; growth stage 13; mean over two rates, three replicates, 14 and 21 days
# Description: as §3, §4
# Setaria viridis (SETVI) [8] = assay: as above; details: nicosulfuron 30 or 60 g/ha, adjuvant 0.2% v/v or none, 200 l/ha; growth stage 13; mean over two rates, three replicates, 14 and 21 days
# Description: as §3, §4
# [9] = test system: four weed species (ABUTH, CHEAL, DIGSA, SETVI); assay: Glasshouse adjuvant test with nicosulfuron (Example 7), mean across species; details: nicosulfuron 30 or 60 g/ha, adjuvant 0.2% v/v or none
# Description: as §3, §4
# [10] = test system: Alopecurus myosuroides (ALOMY); assay: Glasshouse adjuvant test with pinoxaden (Example 8); details: pinoxaden 7.5 or 15 g/ha, adjuvant 0.2% v/v or none, 200 l/ha; growth stage 13; mean over two rates, three replicates, 14 and 21 days
# Description: (§5) The adjuvant shown in example 1 was tested in a glasshouse against four weed species in combination with the herbicide pinoxaden. A 20% w/w stock emulsion of compound 1 was prepared additionally containing 2% w/w Gohsenol® GL03 and 2% w/w Pluronic® PE10500 as surfactants. Using this, an agrochemical composition was prepared containing 0.2% v/v of the adjuvant in a track sprayer and was applied at a volume of 200 liters per hectare. Pinoxaden was applied at either 7.5 or 15 grams of pesticide per hectare on each of the weed species. The weed species and their growth stage at spraying were Alopecurus myosuroides (ALOMY; growth stage 13), Avena fatua (AVEFA; growth stage 12); Lolium perenne (LOLPE; growth stage 13), Setaria viridis (SETVI; growth stage 14).
# as §4, with “test was” for “test”, “8” for “7 below”, “pinoxaden,” for “nicosulfuron,”, “pinoxaden” for “nicosulfuron”, “of” for “of an”
# Avena fatua (AVEFA) = assay: as above; details: pinoxaden 7.5 or 15 g/ha, adjuvant 0.2% v/v or none, 200 l/ha; growth stage 12; mean over two rates, three replicates, 14 and 21 days
# Description: as §5
# as §4, with “test was” for “test”, “8” for “7 below”, “pinoxaden,” for “nicosulfuron,”, “pinoxaden” for “nicosulfuron”, “of” for “of an”
# Lolium perenne (LOLPE) = assay: as above; details: pinoxaden 7.5 or 15 g/ha, adjuvant 0.2% v/v or none, 200 l/ha; growth stage 13; mean over two rates, three replicates, 14 and 21 days
# Description: as §5
# as §4, with “test was” for “test”, “8” for “7 below”, “pinoxaden,” for “nicosulfuron,”, “pinoxaden” for “nicosulfuron”, “of” for “of an”
# Setaria viridis (SETVI) [11] = assay: as above; details: pinoxaden 7.5 or 15 g/ha, adjuvant 0.2% v/v or none, 200 l/ha; growth stage 14; mean over two rates, three replicates, 14 and 21 days
# Description: as §5
# as §4, with “test was” for “test”, “8” for “7 below”, “pinoxaden,” for “nicosulfuron,”, “pinoxaden” for “nicosulfuron”, “of” for “of an”
# [12] = test system: four weed species (ALOMY, AVEFA, LOLPE, SETVI); assay: Glasshouse adjuvant test with pinoxaden (Example 8), mean across species; details: pinoxaden 7.5 or 15 g/ha, adjuvant 0.2% v/v or none
# Description: as §5
# as §4, with “test was” for “test”, “8” for “7 below”, “pinoxaden,” for “nicosulfuron,”, “pinoxaden” for “nicosulfuron”, “of” for “of an”
smiles,measurement,setting,value
"CCN(CC)C(=O)c1cccc(C)c1 [Compound 1, N, N-diethyl-3-methylbenzamide]",Mean percentage kill AMATE,[1],71.7%
same,Mean percentage kill BRADE,[2],28.9%
same,Mean percentage kill DIGSA,[3],28.6%
same,Mean percentage kill POLCO,[4],87.2%
same,Mean percentage kill ABUTH,[5],72.9%
same,Mean percentage kill CHEAL,[6],63.8%
same,Mean percentage kill DIGSA,[7],89.4%
same,Mean percentage kill SETVI,Setaria viridis (SETVI) [8],93.4%
same,"Mean percentage kill, Mean across species",[9],81.3%
same,Mean percentage kill ALOMY,[10],22.5%
same,Mean percentage kill AVEFA,Avena fatua (AVEFA),29.2%
same,Mean percentage kill LOLPE,Lolium perenne (LOLPE),20.8%
same,Mean percentage kill SETVI,Setaria viridis (SETVI) [11],15.8%
same,"Mean percentage kill, Mean across species",[12],22.1%
